Values after ≈ are worked out from the molar mass of the structure shown. Where a SMILES comes first, the peptide text is derived from it. The star is where a group is joined. Benzoyl(4-B(OH)2) = O=C(c1ccc(B(O)O)cc1)*; Acridin9yl = c1ccc2c(*)c3ccccc3nc2c1
Tests used:
[1] = system: Staphylococcus aureus; assay: Antimicrobial activity against Staphylococcus aureus ATCC 6538 measured on day 4 by broth microdilution method; assay type: functional; details: ATCC 6538, 96 h
[2] = system: Aspergillus niger; assay: Antifungal activity against Aspergillus niger measured on day 4 by broth microdilution method; assay type: functional; details: 96 h
[3] = system: U-87 MG; assay: Cytotoxicity against human U87 cells assessed as decrease in cell viability at 10 uM after 24 hrs by MTT assay; assay type: cell-based; details: u-87mg atcc
[4] = system: Mycolicibacterium smegmatis; assay: Antimicrobial activity against Mycobacterium smegmatis ATCC 607 measured on day 4 by broth microdilution method; assay type: functional; details: ATCC 607, 96 h
[5] = system: Staphylococcus aureus; assay: Antimicrobial activity against methicillin-resistant Staphylococcus aureus ATCC 43300 measured on day 4 by broth microdilution method; assay type: functional; details: ATCC 43300, 96 h
[6] = system: Escherichia coli; assay: Antimicrobial activity against Escherichia coli C ATCC 13706 measured on day 4 by broth microdilution method; assay type: functional; details: C ATCC 13706, 96 h
[7] = system: Candida albicans; assay: Antifungal activity against Candida albicans measured on day 4 by broth microdilution method; assay type: functional; details: 96 h
[8] = system: Candida albicans; assay: Antifungal activity against Candida albicans VT1406 in cell suspension after 24 hrs by XXT/PMS dye based assay; assay type: functional; details: VT1406, 24 h
[9] = system: Saccharomyces cerevisiae; assay: Induction of membrane lysis activity in Saccharomyces cerevisiae assessed as maltase release at MIC after 60 mins relative to control; assay type: functional
[10] = system: Candida albicans; assay: Antibiofilm activity against Candida albicans VT1406 after 24 hrs by XXT/PMS dye based assay; assay type: functional; details: VT1406, 24 h
[11] = Safety index, ratio of EC10 for hemolytic activity in sheep RBC to MIC for Candida albicans; assay type: toxicity; details: sheep red blood cells
[12] = system: Erythrocyte; assay: Hemolytic activity in sheep RBC measured after 15 mins; assay type: ADME, cell-based, Ovis aries; details: 0.25 h
[13] = system: Candida albicans; assay: Induction of membrane lysis in Candida albicans assessed as maltase release at MIC after 60 mins relative to control; assay type: functional

SMILES: CC(C)C[C@H](NC(=O)[C@H](CCCCN)NC(=O)[C@H](CCCCN)NC(=O)[C@H](CCCCN)NC(=O)[C@H](CCCCNc1c2ccccc2nc2ccccc12)NC(=O)[C@H](CCCCN)NC(=O)[C@H](CCCCN)NC(=O)[C@@H](N)CCCCNc1c2ccccc2nc2ccccc12)C(=O)N[C@@H](CCCCNC(=O)c1ccc(B(O)O)cc1)C(=O)N[C@@H](Cc1ccc(O)cc1)C(=O)O (H-K(Acridin9yl)KKK(Acridin9yl)KKKLK(Benzoyl(4-B(OH)2))Y-OH)
- MIC [1]: 1 µg/mL (≈ 0.549 µM)
- MIC [2]: 32 µg/mL (≈ 17.6 µM)
- Activity [3]: Non-Toxic
- MIC [4]: 16 µg/mL (≈ 8.78 µM)
- MIC [5]: 2 µg/mL (≈ 1.1 µM)
- MIC [6]: 4 µg/mL (≈ 2.2 µM)
- MIC [7]: 8 µg/mL (≈ 4.39 µM)

SMILES: NCCCC[C@H](NC(=O)[C@H](CCCCNc1c2ccccc2nc2ccccc12)NC(=O)[C@H](CCCCNc1c2ccccc2nc2ccccc12)NC(=O)[C@H](CCCCN)NC(=O)[C@H](CCCCN)NC(=O)[C@H](CCCCN)NC(=O)[C@H](CCCCN)NC(=O)[C@H](CCCCN)NC(=O)[C@@H](N)CCCCN)C(=O)N[C@@H](Cc1ccc(O)cc1)C(=O)O (H-KKKKKKK(Acridin9yl)K(Acridin9yl)KY-OH)
- MIC [1]: 1 µg/mL (≈ 0.592 µM)
- MIC [2]: 62.5 µg/mL (≈ 37 µM)
- Activity [3]: Non-Toxic
- MIC [4]: 16 µg/mL (≈ 9.47 µM)
- MIC [5]: 62.5 µg/mL (≈ 37 µM)
- MIC [6]: 8 µg/mL (≈ 4.74 µM)
- MIC [7]: 4 µg/mL (≈ 2.37 µM)

SMILES: CC(C)C[C@H](NC(=O)[C@H](CCCCN)NC(=O)[C@H](CCCCN)NC(=O)[C@H](CCCCN)NC(=O)[C@H](CCCCN)NC(=O)[C@H](CCCCN)NC(=O)[C@H](CCCCN)NC(=O)[C@@H](N)CCCCN)C(=O)N[C@@H](CCCCNc1c2ccccc2nc2ccccc12)C(=O)N[C@@H](Cc1ccc(O)cc1)C(=O)O (H-KKKKKKKLK(Acridin9yl)Y-OH)
- MIC [1]: 16 µg/mL (≈ 10.7 µM)
- MIC [8]: 1 µg/mL (≈ 0.668 µM)
- MIC [2]: 62.5 µg/mL (≈ 41.8 µM)
- Activity [9]: 0.7%
- Activity [3]: Non-Toxic
- MIC [4]: 32 µg/mL (≈ 21.4 µM)
- MIC [10]: 1 µg/mL (≈ 0.668 µM)
- selectivity ratio [11]: > 100
- MIC [6]: 8 µg/mL (≈ 5.34 µM)
- MIC [7]: 2 µg/mL (≈ 1.34 µM)
- EC10 [12]: > 250 µg/mL
- Activity [13]: 6%

— ChEMBL document CHEMBL4118096, “Branched Peptides: Acridine and Boronic Acid Derivatives as Antimicrobial Agents” (ACS Med Chem Lett, 2017)
